≈ marks a conversion by molar mass, not a printed value.
Key:
HSV-1 strain E-377 = assay: CPE inhibition assay, HSV-1 E377 in human foreskin fibroblast cells; format: cell-based, herpes simplex virus type 1; settings: for EC50 HSV-1 E377: CPE inhibition in HFF cells; on Qualitative CPE at 2.0 ml dose HSV-1 E377: key: +++ = Complete cytopathic effect; ++ = Moderate cytopathic effect; + = Minimum cytopathic effect; − = No cytopathic effect
HSV-2 strain MS = assay: CPE inhibition assay, HSV-2 MS in human foreskin fibroblast cells; format: cell-based, herpes simplex virus type 2; settings: for EC50 HSV-2 MS: CPE inhibition in HFF cells; on Qualitative CPE at 2.0 ml dose HSV-2 MS: key: +++ = Complete cytopathic effect; ++ = Moderate cytopathic effect; + = Minimum cytopathic effect; − = No cytopathic effect
HSV-2 (strain G) = assay: Plaque reduction assay, HSV-2 strain G in HEp-2 cells; format: cell-based, herpes simplex virus type 2; settings: HSV-2 virus control 47
Experimental: HEp-2 cells were grown to monolayer in 24 well tissue culture plates in DMEM containing 10% fetal calf serum at 37° C. for 24-36 hours in the presence of 5% CO2. The monolayer of HEp-2 cells was infected with 0.1 ml of HSV- 1 (strain F) or HSV-2 (strain G) containing 100 pfu. The viruses were allowed to adsorb for 1 hour at 37° C. in the presence of 5% CO2. All wells containing virus infected cells except virus control were overlaid with 0.9 ml of DMEM and 1 ml of test compound. The virus control and cell control received DMEM only. All microtiter plates were incubated at 37° C. in the presence of 5% CO2 and observed twice daily for 72 hours for viral CPE. At the end of the experiment, plates were stained with 0.1% crystal violet and the results were quantified by counting plaque forming units.

[1] = test system: Primary Rabbit Kidney cells; assay: Cytotoxic effect in primary rabbit kidney cells; format: cell-based; settings: for CC50: Primary Rabbit Kidney cell line
Experimental: Human laryngeal epithelial carcinoma cells (HEp-2, ATCC, Rockville, Md.) were used for testing of antiviral compounds by cytopathic effect (CPE) inhibition and plaque reduction assay. […] HEp-2, African green monkey kidney cells (Vero, ATCC), HFF and primary rabbit kidney cells were used to determine the cytotoxic effect of compounds of formula I. These cells were propagated in Dulbeco's modified Eagle's medium (DMEM) (Sigma, USA) supplemented with 10% inactivated fetal calf serum (FCS), 25 mM HEPES, 0.2% sodium bicarbonate and 1% penicillin/-streptomycin at 37° C. in the presence of 5% CO2.
HFF, Vero and HEp-2 cells were seeded in 24-well tissue culture plates at a concentration of […] in DMEM containing 10% FCS and incubated for 24 hours at 37° C. in the presence of 5% CO2. To the monolayer of these cells 0.5, 1.0, 1.5 and 2.0 ml of solution of antiviral compounds were added in the respective wells in duplicate and the cells were then incubated in a 5% CO2 incubator at 37° C. for 72 hours. The cells were observed daily for any change in morphology. […] At the end of this time, the media-drug solution was removed and the cells washed. One ml of 0.25% trypsin was added to each well and incubated until the cells start to come off of the plate. The cells-media mixture was then pipetted up and down several times to resuspend the cells and 0.2 ml of the cell suspension was added to 9.8 ml of trypan blue and cells were counted using hemocytometer. Each sample was counted three times with three replicate wells per sample.

HSV-1 (E377) = assay: Cutaneous HSV-1 infection in rats, topical ointment; format: in vivo, rat; settings: for effect on cutaneous HSV-1 infection (in words): topical ointment (2% betulin, 2% allobetulin, 5% Acyclovir) twice daily for 3 days from 18 hours after infection
[2] = test system: Human laryngeal epithelial carcinoma cells (HEp-2); assay: Cytotoxicity in HEp-2 cells; format: cell-based
HSV-2 (MS Strain) = assay: Cutaneous HSV-2 infection in rats, topical ointment; format: in vivo, rat; settings: topical 2% ointment twice daily for 3 days
[3] = HFF cells, solution conc. per compound (ng/ml) (Acyclovir 250)
[4] = conc. per compound (ng/ml) (Acyclovir 250)

acycloguanosine [Acyclovir, reference compound]
EC50 HSV-1 E377 (HSV-1 strain E-377): 1.6 µg/mL
Qualitative CPE at 2.0 ml dose HSV-1 E377 (HSV-1 strain E-377; HFF cells, Conc. 12500 ng/ml): +
Qualitative CPE at 2.0 ml dose HSV-1 E377 (HSV-1 strain E-377; [3]): +++
EC50 HSV-2 MS (HSV-2 strain MS): 6 µg/mL
Qualitative CPE at 2.0 ml dose HSV-2 MS (HSV-2 strain MS; HFF cells, Conc. 12500 ng/ml): +
Qualitative CPE at 2.0 ml dose HSV-2 MS (HSV-2 strain MS; [3]): +++
Plaque Reduction Assay Average pfu/10^5 Cells HSV-2 Strain G (HSV-2 (strain G); Conc. 12500 ng/ml): 30 pfu/10^5 Cells
Plaque Reduction Assay Average pfu/10^5 Cells HSV-2 Strain G (HSV-2 (strain G); [4]): 42 pfu/10^5 Cells
CC50 [1]: >0.25 µg/mL
effect on cutaneous HSV-1 infection (in words) (HSV-1 (E377)): same healing response

C=C(C)[C@@H]1CC[C@]2(CO)CC[C@]3(C)[C@H](CC[C@@H]4[C@@]5(C)CC[C@H](O)C(C)(C)[C@@H]5CC[C@]43C)[C@@H]12 [Betulin, lup-20(29)-ene-3β, 28-diol, reference compound]
EC50 HSV-1 E377 (HSV-1 strain E-377): 0.25 µg/mL (≈ 0.565 µM)
anti HSV-1 activity (in words) (HSV-1 strain E-377; HFF cells, HSV-1 (E377)): significant anti-HSV-1 activity
Qualitative CPE at 2.0 ml dose HSV-1 E377 (HSV-1 strain E-377; [3]): +++
EC50 HSV-2 MS (HSV-2 strain MS): ~0.125 µg/mL (≈ 0.282 µM)
anti HSV-2 activity (in words) (HSV-2 strain MS; HFF cells, HSV-2): significant anti HSV-2 activity
Qualitative CPE at 2.0 ml dose HSV-2 MS (HSV-2 strain MS; [3]): +
cytotoxicity (in words) ([2]; HEp-2 (human epithelial) cells): less cytotoxicity
Cell Cytotoxicity ([2]; HEp-2 cells, conc. per compound (ng/ml)): −
Plaque Reduction Assay Average pfu/10^5 Cells HSV-2 Strain G (HSV-2 (strain G); [4]): 16 pfu/10^5 Cells
CC50 [1]: >0.25 µg/mL
cytotoxicity (in words) ([1]; primary rabbit kidney cells): No cytotoxicity
number of typical HSV lesions (HSV-1 (E377); HSV-1, by the 4th to 8th days of infection, 2% ointment twice daily for 3 days): decreased rapidly
effect on cutaneous HSV-1 infection (in words) (HSV-1 (E377)): diminished the signs of the infectious process
effect on cutaneous HSV-2 infection (in words) (HSV-2 (MS Strain)): significant effect
